pIC50: −log10 of the molar value. Converted amounts (≈) assume the structure as drawn. Where two headings read alike, the source gives them in different places.
What was measured:
[1] = tested on: Neuronal cortical cells treated with Aβ1-42; assay: Assay 3(c) Aβ neurotoxicity and Aβ neuroprotection (MTS); format: cell-based, mouse; details: 20 uM Aβ1-42, 4 days
Method: Primary Cortical Neuronal Cultures
Cortical cultures were prepared as previously described (White et al., 1998). Embryonic day 14 BL6Jx129sv mouse cortices were removed, dissected free of meninges and dissociated in 0.025% (wt/vol) trypsin. Dissociated cells were plated in 48 well culture plates at a density of 2×10^6 cells/mL in MEM with 25% (vol/vol) FCS and 5% (vol/vol) HS and incubated at 37° C., 2 hrs. Media was then replaced with Neurobasal media (Invitrogen Life Technologies) and B27 supplements (Invitrogen Life Technologies). Cultures were maintained at 37° C. in 5% CO2. Prior to experimentation, the culture medium was replaced with Neurobasal media and B27 minus antioxidants (Invitrogen Life Technologies).
(c) Assay for Aβ Neurotoxicity and Aβ Neuroprotection
Neuronal cortical cells were cultured for five days as per Assay 2. On day six the neurobasal (NB) media (Invitrogen Life Technologies) and B27 supplement (Invitrogen Life Technologies) were replaced with NB media and B27 supplement (no antioxidants). On day six, test compounds were individually added to the neuronal cell cultures:
(§1) The test compounds were dissolved in 100% DMSO to a concentration of 2.5 mM (10 mM if excess compound was weighed out per vial—then diluted to 2.5 mM). 2.5 mM stock solution was serially diluted 1 in 10 to give working solutions of 250 uM, 25 uM, 2.5 uM.
Aβ was initially dissolved in 20 mM NaOH to a concentration of 1 mM and sonicated for 5 minutes. The peptide was then diluted in H2O and 10×PBS to a final concentration of 200 uM Aβ in 1×PBS. The peptide was again sonicated for 5 minutes and then spun at 14000 rpm for 5 min and transferred to a fresh tube.
as §1, with “in 10 [in NB media and B27 (no antioxidants)] to give” for “in 10 to give”, “2.5 uM. Test compounds were not added directly to cells, instead they were added to a 48 well ‘Drug Plate’ as comprised below:” for “2.5 uM.”
Preparation of “Drug Plate”:
• Well 1: 515 ul NB+B27(no antioxidant)*+24 ul 25 uM test compound+60 ul Aβ diluent** • Well 2: 515 ul NB+B27(no antioxidant)+24 ul 250 uM test compound+60 ul Aβ diluent • Well 3: 515 ul NB+B27(no antioxidant)+24 ul test compound diluent***+60 ul Aβ1-42 • Well 4: 515 ul NB+B27(no antioxidant)+24 ul 2.5 uM test compound+60 ul Aβ1-42 • Well 5: 515 ul NB+B27(no antioxidant)+24 ul 25 uM test compound+60 ul Aβ1-42 • Well 6: 515 ul NB+B27(no antioxidant)+24 ul 250 uM test compound+60 ul […] • Well 7: 515 ul NB+B27(no antioxidant)+24 ul test compound diluent+60 ul Aβ1-42 diluent • Well 8: 600 ul NB+B27(no antioxidant) • N.B. 60 ul Aβ1-42 equals 20 ul Aβ1-42 per well equals 20 uM Aβ1-42
The Drug Plate was incubated at 37° C. for 15 mins. 200 ul of each well was added in triplicate to the corresponding cell plate. The cell plate was incubated at 37 C, for 4 days. • * NB media+B27 (no antioxidants), • ** Aβ diluent 2 mM NaOH, 1×PBS • *** PBT diluent 10% DMSO in NB+B27(no antioxidant) Completion of the Assay:
On the 4th day after treating the cells the assay is completed by adding MTS to the cells.

Aβ 1-42 = target: T1, Aβ 1-42 (Homo sapiens, UniProt P05067); assay: Assay 1 Fluorometric H2O2 assay: inhibition of hydrogen peroxide generation by Aβ in the presence of copper; format: biochemical; details: Aβ 1-42 with Cu-Gly, DCF fluorescence
T1 construct: The reaction solutions contained Aβ 1-42
Method: Assay 1. Fluorometric H2O2 Assay
A fluorometric assay was used to test the ability of a test compound to inhibit hydrogen peroxide generation by Aβ in the presence of copper based on dichlorofluoroscein diacetate (DCF; Molecular Probes, Eugene Oreg.). The DCF solution (5 mM) in 100% dimethyl sulphoxide (previously purged with argon for 1 hr at 20° C.) was deacetylated in the presence of 0.025M NaOH for 30 min and neutralised at pH 7.4 to a final concentration of 1 mM. Horseradish peroxidase ([…]) stock solution was prepared to 1 μM at pH 7.4. The reactions were carried out in PBS, pH 7.4 in a 96 well plate (total volume=250 μl/well). The reaction solutions contained Aβ 1-42 at concentrations in the range of 50 nM to 1 μM, copper-glycine chelate (Cu-Gly), was prepared by adding CuCl2 to glycine in the ratio of 1:6 and added to the Aβ in the proportion 2Cu-Gly: 1Aβ), reducing agents including dopamine (5 μM) or ascorbic acid, deacetylated DCF 100 μM, and HRP, 0.1 μM. 1-10 μM EDTA or another chelator may also be present as a control for free copper, but was not required for the assay to function. The reaction mixture was incubated at 37 C for 60 min. Catalase (4000 units/ml) and H2O2 (1-2.5 μM) standards in PBS pH 7.4 may be included as positive controls. Fluorescence was recorded using a plate reader with excitation and emission filters at […] respectively. H2O2 concentration may be established by comparing fluorescence with the H2O2 standards. Inhibition of Aβ H2O2 production was assayed by including a given concentration of test compound(s) in the test wells.

[2] = Assay 12 Turbidimetric solubility measurements; format: physicochemical; details: kinetic from dmso stock, nephelometry
Method: Turbidimetric Solubility Measurements
The solubility estimate was measured at both pH 2.0 and pH 6.5. This is within the pH range that can be anticipated along the proximal gastrointestinal tract in humans.
The compounds were dissolved in DMSO to appropriate concentrations and then spiked into either 0.01M HCl (approx. pH=2.0) or pH 6.5 isotonic phosphate buffer, the final DMSO concentration being 1%. Samples were then analysed via Nephelometry to determine a solubility range. [as per D. Bevan and R. S. Lloyd, Anal. Chem. 2000, 72, 1781-1787].

[3] = aqueous buffer, pH 6.5 isotonic phosphate buffer, 1% DMSO, read-out: Assay 12 Solubility at pH 6.5
[4] = simulated gastric fluid, 0.01 M HCl, pH 2.0, 1% DMSO, read-out: Assay 12 Solubility in 0.01 M HCl, pH 2.0

T1 sequence (P05067 672-713 limits assumed): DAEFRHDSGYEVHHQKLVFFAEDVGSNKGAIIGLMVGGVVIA

| SMILES | Assay 3(c) Neuroprotection (% inhibition of Abeta toxicity) [1] [%] | pIC50 (Aβ 1-42) | solubility [2, 3] [mg/mL] | solubility [2, 4] [mg/mL] |
| --- | --- | --- | --- | --- |
| Oc1c(N2CCOCC2)ncc2cccnc12 [PBT-1053, 7-Morpholin-4-yl-[1,6]naphthyridin-8-ol] | 11 | 6.20 | > 0.2 | 0.05 to 0.1 (≈ 216 to 432 µM) |
| O=c1c2c(Cl)cc(Cl)c(O)c2ncn1C1CC1 [PBT-1061, 5,7-Dichloro-3-cyclopropyl-8-hydroxy-3H-quinazolin-4-one] | 16 | 6.35 | 0.0125 to 0.025 (≈ 46.1 to 92.2 µM) | 0.0031 to 0.0062 (≈ 11.4 to 22.9 µM) |
| O=c1c(-c2ccc(Cl)cc2)cnc2c(O)c(I)ccn12 [PBT-1063, 3-(4-Chlorophenyl)-9-hydroxy-8-iodopyrido[1,2-a]pyrimidin-4-one] | 3 | 6.21 | < 0.005 | < 0.01 |

Source: US7692011B2, “8-hydroxy and 8-mercapto quinazolinones” (Prana Biotechnology Limited, priority 2002, dated 2010)
